{"source": "ChEMBL document CHEMBL4024706", "about": "(Eur J Med Chem, 2017)", "key": {"[1]": {"biological_target": "Serine/threonine-protein kinase PLK4 (Homo sapiens) (UniProt O00444)", "test": "Inhibition of wild-type human partial length PLK4 (M1 to S273 residues) expressed in mammalian expression system assessed as residual activity at 1 uM by Kinomescan method relative to control"}, "[2]": {"tested_on": "Receptor-type tyrosine-protein kinase FLT3 (Homo sapiens), P36888 [D835V]", "test": "Inhibition of human partial length FLT3 D835V mutant (V592 to Y969 residues) expressed in bacterial expression system assessed as residual activity at 1 uM by Kinomescan method relative to control"}, "[3]": {"biological_target": "RAF proto-oncogene serine/threonine-protein kinase (Homo sapiens) (UniProt P04049)", "sequence (P04049 whole entry, the tested form may be a part)": "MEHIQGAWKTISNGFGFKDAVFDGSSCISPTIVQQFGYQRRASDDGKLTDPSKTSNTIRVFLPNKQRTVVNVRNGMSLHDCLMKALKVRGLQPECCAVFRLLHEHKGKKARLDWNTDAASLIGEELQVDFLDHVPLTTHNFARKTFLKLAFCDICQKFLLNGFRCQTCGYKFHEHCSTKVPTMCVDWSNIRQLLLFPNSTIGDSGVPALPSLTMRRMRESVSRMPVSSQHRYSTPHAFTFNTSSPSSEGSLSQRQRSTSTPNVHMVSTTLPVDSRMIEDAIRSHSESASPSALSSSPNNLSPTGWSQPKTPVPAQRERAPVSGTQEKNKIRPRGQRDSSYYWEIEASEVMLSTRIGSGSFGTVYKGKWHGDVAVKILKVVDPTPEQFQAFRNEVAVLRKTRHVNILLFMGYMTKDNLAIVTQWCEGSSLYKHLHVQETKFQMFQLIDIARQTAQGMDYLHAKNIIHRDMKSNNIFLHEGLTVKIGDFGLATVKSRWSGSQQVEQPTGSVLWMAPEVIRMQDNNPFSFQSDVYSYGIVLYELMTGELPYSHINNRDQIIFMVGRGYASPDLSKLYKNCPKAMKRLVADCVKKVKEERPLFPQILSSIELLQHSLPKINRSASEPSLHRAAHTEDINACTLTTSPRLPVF", "test": "Inhibition of wild-type human partial length RAF1 (I330 to T640 residues) expressed in bacterial expression system assessed as residual activity at 1 uM by Kinomescan method relative to control"}, "[4]": {"biological_target": "Serine/threonine-protein kinase Sgk1 (Homo sapiens) (UniProt O00141)", "test": "Inhibition of wild-type human partial length SGK (I60 to L431 residues) expressed in mammalian expression system assessed as residual activity at 1 uM by Kinomescan method relative to control"}, "[5]": {"biological_target": "Phosphatidylinositol 4-kinase beta (Homo sapiens) (UniProt Q9UBF8)", "sequence (Q9UBF8 2-816 limits assumed)": "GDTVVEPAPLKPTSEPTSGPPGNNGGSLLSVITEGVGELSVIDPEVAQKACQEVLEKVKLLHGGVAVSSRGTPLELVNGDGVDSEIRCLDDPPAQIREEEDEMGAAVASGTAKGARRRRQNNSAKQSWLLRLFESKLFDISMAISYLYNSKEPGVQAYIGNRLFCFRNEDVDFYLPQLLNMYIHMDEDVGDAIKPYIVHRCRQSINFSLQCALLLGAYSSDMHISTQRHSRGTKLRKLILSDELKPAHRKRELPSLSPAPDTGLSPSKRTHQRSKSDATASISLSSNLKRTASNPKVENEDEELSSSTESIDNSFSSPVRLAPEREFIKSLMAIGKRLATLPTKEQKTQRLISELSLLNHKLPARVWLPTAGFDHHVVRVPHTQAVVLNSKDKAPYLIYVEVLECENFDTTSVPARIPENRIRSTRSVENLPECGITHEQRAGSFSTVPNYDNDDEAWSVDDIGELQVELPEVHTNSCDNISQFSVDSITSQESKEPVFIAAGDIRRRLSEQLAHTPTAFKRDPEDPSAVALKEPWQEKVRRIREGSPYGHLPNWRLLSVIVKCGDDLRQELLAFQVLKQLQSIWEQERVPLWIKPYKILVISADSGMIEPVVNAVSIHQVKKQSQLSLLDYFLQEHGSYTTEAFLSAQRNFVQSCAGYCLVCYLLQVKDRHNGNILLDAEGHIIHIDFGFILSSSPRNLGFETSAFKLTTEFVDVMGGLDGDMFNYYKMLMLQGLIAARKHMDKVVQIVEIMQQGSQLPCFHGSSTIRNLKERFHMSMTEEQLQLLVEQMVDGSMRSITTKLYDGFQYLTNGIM", "test": "Inhibition of wild-type human full length PIK4CB (M1 to M828 residues) expressed in mammalian expression system assessed as residual activity at 1 uM by Kinomescan method relative to control"}, "[6]": {"biological_target": "Aurora kinase A (Homo sapiens) (UniProt O14965)", "sequence (O14965 whole entry, the tested form may be a part)": "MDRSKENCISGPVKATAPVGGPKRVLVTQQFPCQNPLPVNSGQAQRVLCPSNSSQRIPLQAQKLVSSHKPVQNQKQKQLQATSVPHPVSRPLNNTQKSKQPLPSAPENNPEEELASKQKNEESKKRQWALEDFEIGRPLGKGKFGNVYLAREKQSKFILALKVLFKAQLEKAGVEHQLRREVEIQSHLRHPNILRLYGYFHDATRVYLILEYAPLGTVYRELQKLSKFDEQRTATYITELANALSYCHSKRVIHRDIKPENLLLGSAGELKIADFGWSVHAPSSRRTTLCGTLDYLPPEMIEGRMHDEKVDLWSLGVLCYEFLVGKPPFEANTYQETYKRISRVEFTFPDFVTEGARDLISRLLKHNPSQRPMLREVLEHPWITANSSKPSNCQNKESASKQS", "test": "Inhibition of wild-type human partial length AURKA (E122 to K401 residues) expressed in mammalian expression system assessed as residual activity at 1 uM by Kinomescan method relative to control"}, "[7]": {"biological_target": "Serine/threonine-protein kinase pim-3 (Homo sapiens) (UniProt Q86V86)", "test": "Inhibition of wild-type human partial length PIM3 (G16 to A317 residues) expressed in bacterial expression system assessed as residual activity at 1 uM by Kinomescan method relative to control"}, "[8]": {"test": "Cmax in Sprague-Dawley rat at 1 mg/kg, iv by LC-MS/MS method", "type": "ADME, organism-based", "design": "dose 1 mg/kg, route intravenous", "details": "in vivo"}, "[9]": {"biological_target": "Casein kinase I isoform delta (Homo sapiens) (UniProt P48730)", "sequence (P48730 whole entry, looked up, the tested form may be a part, canonical isoform)": "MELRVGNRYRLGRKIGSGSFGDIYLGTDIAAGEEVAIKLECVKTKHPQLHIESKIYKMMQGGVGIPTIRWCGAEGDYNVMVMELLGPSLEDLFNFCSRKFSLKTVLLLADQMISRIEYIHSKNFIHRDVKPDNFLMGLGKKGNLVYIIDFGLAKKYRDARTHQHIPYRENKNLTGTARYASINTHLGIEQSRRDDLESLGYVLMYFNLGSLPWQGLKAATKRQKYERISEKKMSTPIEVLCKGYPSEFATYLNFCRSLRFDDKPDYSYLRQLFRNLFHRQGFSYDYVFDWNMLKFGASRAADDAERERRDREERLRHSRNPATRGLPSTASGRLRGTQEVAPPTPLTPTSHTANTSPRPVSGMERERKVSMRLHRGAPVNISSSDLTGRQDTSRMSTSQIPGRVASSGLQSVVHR", "test": "Inhibition of wild-type human full length CSNK1D (M1 to K409 residues) expressed in bacterial expression system assessed as residual activity at 1 uM by Kinomescan method relative to control"}, "[10]": {"biological_target": "Dual specificity protein kinase CLK3 (Homo sapiens) (UniProt P49761)", "sequence (P49761 whole entry, looked up, the tested form may be a part)": "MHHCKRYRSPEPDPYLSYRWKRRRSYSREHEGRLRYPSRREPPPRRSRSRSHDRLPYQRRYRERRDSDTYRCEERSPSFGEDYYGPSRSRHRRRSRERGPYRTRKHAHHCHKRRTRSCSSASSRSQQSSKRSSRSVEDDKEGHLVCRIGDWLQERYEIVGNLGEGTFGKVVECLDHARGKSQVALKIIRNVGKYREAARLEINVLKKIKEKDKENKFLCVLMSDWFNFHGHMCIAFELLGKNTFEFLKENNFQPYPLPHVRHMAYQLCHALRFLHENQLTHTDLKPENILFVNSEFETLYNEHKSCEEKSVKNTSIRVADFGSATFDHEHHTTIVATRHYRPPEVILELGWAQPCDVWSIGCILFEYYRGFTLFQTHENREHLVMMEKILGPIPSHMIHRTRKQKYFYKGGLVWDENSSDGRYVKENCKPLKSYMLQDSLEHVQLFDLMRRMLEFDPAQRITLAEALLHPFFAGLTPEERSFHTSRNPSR", "test": "Inhibition of wild-type human full length CLK3 (M1 to R490 residues) expressed in bacterial expression system assessed as residual activity at 1 uM by Kinomescan method relative to control"}, "[11]": {"biological_target": "Macrophage colony-stimulating factor 1 receptor (Homo sapiens) (UniProt P07333)", "sequence (P07333 whole entry, the tested form may be a part)": "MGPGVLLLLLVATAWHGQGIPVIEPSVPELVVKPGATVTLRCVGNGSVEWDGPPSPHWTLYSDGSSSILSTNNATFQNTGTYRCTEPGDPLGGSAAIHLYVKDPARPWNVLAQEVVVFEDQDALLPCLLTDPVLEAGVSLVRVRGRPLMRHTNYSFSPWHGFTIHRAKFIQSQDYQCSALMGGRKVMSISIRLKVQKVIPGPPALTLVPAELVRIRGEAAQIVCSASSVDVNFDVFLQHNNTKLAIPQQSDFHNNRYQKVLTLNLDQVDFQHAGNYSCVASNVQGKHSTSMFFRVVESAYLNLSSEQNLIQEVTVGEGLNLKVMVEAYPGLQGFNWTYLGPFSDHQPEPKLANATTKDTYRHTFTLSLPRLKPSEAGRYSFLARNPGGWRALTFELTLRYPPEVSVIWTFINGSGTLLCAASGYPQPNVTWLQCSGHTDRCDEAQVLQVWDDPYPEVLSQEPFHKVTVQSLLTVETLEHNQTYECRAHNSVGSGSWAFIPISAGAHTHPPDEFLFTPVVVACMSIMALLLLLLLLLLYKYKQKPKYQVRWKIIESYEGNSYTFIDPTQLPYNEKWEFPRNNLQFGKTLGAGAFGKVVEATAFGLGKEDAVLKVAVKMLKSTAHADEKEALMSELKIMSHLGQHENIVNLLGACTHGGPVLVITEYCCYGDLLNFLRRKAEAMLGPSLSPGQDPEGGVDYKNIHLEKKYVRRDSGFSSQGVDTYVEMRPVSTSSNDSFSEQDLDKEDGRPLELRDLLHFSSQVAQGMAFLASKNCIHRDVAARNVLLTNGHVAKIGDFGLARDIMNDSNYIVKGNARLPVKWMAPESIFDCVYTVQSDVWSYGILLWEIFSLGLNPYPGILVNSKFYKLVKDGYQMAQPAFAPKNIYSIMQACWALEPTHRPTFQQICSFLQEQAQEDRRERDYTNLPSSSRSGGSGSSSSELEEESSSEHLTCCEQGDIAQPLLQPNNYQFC", "test": "Inhibition of wild-type human partial length CSF1R (I564 to S939 residues) expressed in bacterial expression system assessed as residual activity at 1 uM by Kinomescan method relative to control"}, "[12]": {"biological_target": "Serine/threonine-protein kinase VRK2 (Homo sapiens) (UniProt Q86Y07)", "sequence (Q86Y07 whole entry, the tested form may be a part)": "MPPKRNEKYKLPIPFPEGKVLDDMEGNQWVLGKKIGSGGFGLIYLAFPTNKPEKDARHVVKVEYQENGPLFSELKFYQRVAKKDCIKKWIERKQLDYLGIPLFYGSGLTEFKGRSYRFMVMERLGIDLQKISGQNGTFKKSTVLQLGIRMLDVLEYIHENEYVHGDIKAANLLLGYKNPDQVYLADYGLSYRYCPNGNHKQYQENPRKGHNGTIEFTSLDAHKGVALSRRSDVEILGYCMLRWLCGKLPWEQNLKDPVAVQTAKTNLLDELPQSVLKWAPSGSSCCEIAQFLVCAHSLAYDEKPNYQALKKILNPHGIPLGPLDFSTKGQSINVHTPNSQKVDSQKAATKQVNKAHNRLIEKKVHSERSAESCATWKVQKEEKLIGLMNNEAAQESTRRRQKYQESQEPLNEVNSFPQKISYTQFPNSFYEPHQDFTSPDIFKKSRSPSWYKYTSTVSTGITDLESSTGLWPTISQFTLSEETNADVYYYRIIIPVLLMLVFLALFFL", "test": "Inhibition of wild-type human partial length VRK2 (M1 to T336 residues) expressed in mammalian expression system assessed as residual activity at 1 uM by Kinomescan method relative to control"}, "[13]": {"biological_target": "NUAK family SNF1-like kinase 1 (Homo sapiens) (UniProt O60285)", "test": "Inhibition of wild-type human partial length ARK5 (E25 to I332 residues) expressed in bacterial expression system assessed as residual activity at 1 uM by Kinomescan method relative to control"}, "[14]": {"biological_target": "Cyclin-dependent kinase 4/cyclin D1 (Homo sapiens) (UniProt P11802+P24385)", "test": "Inhibition of wild-type human full length CDK4/cyclinD1 (M1 to E303 residues) expressed in mammalian expression system assessed as residual activity at 1 uM by Kinomescan method relative to control"}, "[15]": {"biological_target": "Serine/threonine-protein kinase PLK2 (Homo sapiens) (UniProt Q9NYY3)", "test": "Inhibition of wild-type human partial length PLK2 (H58 to F354 residues) expressed in mammalian expression system assessed as residual activity at 1 uM by Kinomescan method relative to control"}, "[16]": {"biological_target": "Mitogen-activated protein kinase kinase kinase 7 (Homo sapiens) (UniProt O43318)", "sequence (O43318 whole entry, the tested form may be a part)": "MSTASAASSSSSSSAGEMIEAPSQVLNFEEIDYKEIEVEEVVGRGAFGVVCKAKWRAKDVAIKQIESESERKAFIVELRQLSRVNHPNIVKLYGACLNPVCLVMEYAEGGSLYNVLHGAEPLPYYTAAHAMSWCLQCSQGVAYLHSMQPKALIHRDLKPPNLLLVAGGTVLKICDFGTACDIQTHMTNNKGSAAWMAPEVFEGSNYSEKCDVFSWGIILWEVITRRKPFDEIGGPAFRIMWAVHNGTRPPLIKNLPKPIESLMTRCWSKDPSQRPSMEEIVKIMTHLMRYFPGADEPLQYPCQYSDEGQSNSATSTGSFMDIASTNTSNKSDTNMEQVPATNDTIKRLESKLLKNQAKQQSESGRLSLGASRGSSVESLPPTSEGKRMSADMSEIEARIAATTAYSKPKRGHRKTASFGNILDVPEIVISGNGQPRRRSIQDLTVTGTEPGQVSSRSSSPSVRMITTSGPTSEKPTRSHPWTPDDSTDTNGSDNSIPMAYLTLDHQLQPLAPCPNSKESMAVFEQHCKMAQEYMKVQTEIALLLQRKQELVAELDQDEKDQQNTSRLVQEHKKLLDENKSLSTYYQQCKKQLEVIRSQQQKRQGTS", "test": "Inhibition of wild-type human partial length TAK1 (M1 to Q303 residues) expressed in mammalian expression system assessed as residual activity at 1 uM by Kinomescan method relative to control"}, "[17]": {"biological_target": "Tyrosine-protein kinase ABL1 (Homo sapiens) (UniProt P00519)", "test": "Inhibition of wild-type human non-phosphorylated ABL1 (S229 to K512 residues) expressed in mammalian expression system assessed as residual activity at 1 uM by Kinomescan method relative to control"}, "[18]": {"biological_target": "Cyclin-dependent kinase 4 (Homo sapiens) (UniProt P11802)", "test": "Inhibition of wild-type human full length CDK4 (M1 to E303 residues) expressed in mammalian expression system assessed as residual activity at 1 uM by Kinomescan method relative to control"}, "[19]": {"biological_target": "Casein kinase I isoform alpha (Homo sapiens) (UniProt P48729)", "test": "Inhibition of wild-type human partial length CSNK1A1 (M1 to L450 residues) expressed in mammalian expression system assessed as residual activity at 1 uM by Kinomescan method relative to control"}, "[20]": {"tested_on": "Tyrosine-protein kinase ABL1 (Homo sapiens), P00519 [F317I]", "test": "Inhibition of human non-phosphorylated ABL1 F317I mutant (S229 to K512 residues) expressed in mammalian expression system assessed as residual activity at 1 uM by Kinomescan method relative to control"}, "[21]": {"biological_target": "Mitogen-activated protein kinase kinase kinase 9 (Homo sapiens) (UniProt P80192)", "test": "Inhibition of wild-type human partial length MLK1 (V88 to W426 residues) expressed in bacterial expression system assessed as residual activity at 1 uM by Kinomescan method relative to control"}, "U2932": {"tested_on": "U2932", "test": "Induction of apoptosis in human U2932 cells assessed as induction of caspase-3 cleavage after 48 hrs by immunoblot", "type": "functional, cell-based"}, "Homo sapiens": {"species_on_record": "Homo sapiens", "test": "Inhibition of human partial length FLT3 ITD/F691L double mutant expressed in bacterial expression system assessed as residual activity at 1 uM by Kinomescan method relative to control"}, "[22]": {"biological_target": "MAP/microtubule affinity-regulating kinase 3 (Homo sapiens) (UniProt P27448)", "test": "Inhibition of wild-type human full length MARK3 (M1 to L729 residues) expressed in bacterial expression system assessed as residual activity at 1 uM by Kinomescan method relative to control"}, "[23]": {"biological_target": "Epidermal growth factor receptor (Homo sapiens, UniProt P00533)", "test": "Inhibition of wild-type human partial length EGFR (R669 to V1011 residues) expressed in bacterial expression system assessed as residual activity at 1 uM by Kinomescan method relative to control"}, "[24]": {"biological_target": "Serine/threonine-protein kinase Nek9 (Homo sapiens) (UniProt Q8TD19)", "test": "Inhibition of wild-type human partial length NEK9 (P32 to R328 residues) expressed in bacterial expression system assessed as residual activity at 1 uM by Kinomescan method relative to control"}}}
{"smiles": "C=CC(=O)Nc1cc(Nc2cc(-c3cccc(NC(=O)c4ccc(C(C)(C)C)cc4)c3C)cn(C)c2=O)ccc1C(=O)N1CCOCC1", "values": [{"measurement": "Activity", "setting": "[1]", "value": 99, "unit": "%"}, {"measurement": "Activity", "setting": "[2]", "value": 70, "unit": "%"}, {"measurement": "Activity", "setting": "[3]", "value": 99, "unit": "%"}, {"measurement": "Activity", "setting": "[4]", "value": 95, "unit": "%"}, {"measurement": "Activity", "setting": "[5]", "value": 90, "unit": "%"}, {"measurement": "Activity", "setting": "[6]", "value": 61, "unit": "%"}, {"measurement": "Activity", "setting": "[7]", "value": 98, "unit": "%"}, {"measurement": "Cmax", "setting": "[8]", "value": 897, "unit": "ng/mL"}, {"measurement": "Activity", "setting": "[9]", "value": 99, "unit": "%"}, {"measurement": "Activity", "setting": "[10]", "value": 98, "unit": "%"}, {"measurement": "Activity", "setting": "[11]", "value": 86, "unit": "%"}, {"measurement": "Activity", "setting": "[12]", "value": 100, "unit": "%"}, {"measurement": "Activity", "setting": "[13]", "value": 100, "unit": "%"}, {"measurement": "Activity", "setting": "[14]", "value": 100, "unit": "%"}, {"measurement": "Activity", "setting": "[15]", "value": 100, "unit": "%"}, {"measurement": "Activity", "setting": "[16]", "value": 89, "unit": "%"}, {"measurement": "Activity", "setting": "[17]", "value": 100, "unit": "%"}, {"measurement": "Activity", "setting": "[18]", "value": 100, "unit": "%"}, {"measurement": "Activity", "setting": "[19]", "value": 100, "unit": "%"}, {"measurement": "Activity", "setting": "[20]", "value": 78, "unit": "%"}, {"measurement": "Activity", "setting": "[21]", "value": 99, "unit": "%"}, {"measurement": "Activity", "setting": "U2932", "value": "Dose-dependent effect"}, {"measurement": "Activity", "setting": "Homo sapiens", "value": 87, "unit": "%"}, {"measurement": "Activity", "setting": "[22]", "value": 100, "unit": "%"}, {"measurement": "Activity", "setting": "[23]", "value": 92, "unit": "%"}, {"measurement": "Activity", "setting": "[24]", "value": 98, "unit": "%"}]}
